Measured values from patent US8357709B2, “2,4-disubstituted pyrrolidine orexin receptor antagonists” (Merck Sharp & Dohme Corp., priority 2008, dated 2013).
pKi: −log10 of the molar value.

Tests used:
orexin-1 receptor (OX1R) = biological target: T1, orexin-1 receptor (OX1R) (UniProt O43613); assay: radioligand binding assay, membranes from CHO cells expressing OX1 receptor; conditions: CHO cell membranes
T1 sequence (O43613 1-425): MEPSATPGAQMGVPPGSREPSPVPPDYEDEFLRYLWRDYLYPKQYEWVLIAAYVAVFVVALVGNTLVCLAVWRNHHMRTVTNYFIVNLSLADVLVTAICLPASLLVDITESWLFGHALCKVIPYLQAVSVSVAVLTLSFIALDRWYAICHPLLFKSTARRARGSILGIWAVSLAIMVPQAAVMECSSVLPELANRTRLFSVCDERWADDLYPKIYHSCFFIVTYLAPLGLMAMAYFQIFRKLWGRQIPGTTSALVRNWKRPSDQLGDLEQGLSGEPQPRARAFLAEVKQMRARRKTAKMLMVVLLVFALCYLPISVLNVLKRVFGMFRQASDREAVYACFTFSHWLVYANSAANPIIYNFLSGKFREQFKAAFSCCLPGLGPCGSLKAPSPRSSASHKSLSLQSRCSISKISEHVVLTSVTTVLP
Description: (§1) The utility of the compounds in accordance with the present invention as orexin receptor OX1R and/or OX2R antagonists may be readily determined without undue experimentation by methodology well known in the art, including the “FLIPR Ca^2+ Flux Assay” (Okumura et al., Biochem. Biophys. Res. Comm. 280:976-981, 2001). In a typical experiment the OX1 and OX2 receptor antagonistic activity of the compounds of the present invention was determined in accordance with the following experimental method. […] Within the Fluorescent Imaging Plate Reader (FLIPR, Molecular Devices), test compounds are added to the plate in a volume of 25 ul, incubated for 5 min and finally 25 ul of agonist is added. Fluorescence is measured for each well at 1 second intervals for 5 minutes and the height of each fluorescence peak is compared to the height of the fluorescence peak induced by 70 pM Ala-6,12 orexin-A with buffer in place of antagonist. […] Alternatively, compound potency can be assessed by a radioligand binding assay (described in Bergman et. al. Bioorg. Med. Chem. Lett. 2008, 18, 1425-1430) in which the inhibition constant (Ki) is determined in membranes prepared from CHO cells expressing either the orexin-1 (OX1) or orexin-2 (OX2) receptor. The intrinsic orexin receptor antagonist activity of a compound which may be used in the present invention may be determined by these assays.

orexin-2 receptor (OX2R) = biological target: T2, orexin-2 receptor (OX2R) (Homo sapiens, UniProt O43614); assay: radioligand binding assay, membranes from CHO cells expressing OX2 receptor; conditions: CHO cell membranes
T2 construct: expressed in transfected cells; host or cells: CHO cells (membrane preparation)
T2 sequence (O43614 1-444): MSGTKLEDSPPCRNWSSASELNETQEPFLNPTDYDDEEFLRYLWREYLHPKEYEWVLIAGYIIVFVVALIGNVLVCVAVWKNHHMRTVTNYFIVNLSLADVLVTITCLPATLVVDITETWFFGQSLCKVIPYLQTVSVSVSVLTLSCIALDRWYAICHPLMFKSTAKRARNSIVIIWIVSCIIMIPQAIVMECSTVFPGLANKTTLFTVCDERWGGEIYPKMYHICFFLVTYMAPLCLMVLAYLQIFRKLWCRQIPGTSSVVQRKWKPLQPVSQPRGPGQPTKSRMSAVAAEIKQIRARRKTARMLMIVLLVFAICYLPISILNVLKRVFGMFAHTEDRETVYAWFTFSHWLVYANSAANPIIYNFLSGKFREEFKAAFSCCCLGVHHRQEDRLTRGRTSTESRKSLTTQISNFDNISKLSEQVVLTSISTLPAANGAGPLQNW
Description: as §1

| SMILES | pKi (orexin-1 receptor (OX1R)) | pKi (orexin-2 receptor (OX2R)) |
| --- | --- | --- |
| Cc1ccc(-n2nccn2)c(C(=O)N2CC(COc3ccc(F)cn3)CC2C)c1 (single isomer, unassigned) [A-8] | 7.43 | 8.29 |
| Cc1ccc(-n2nccn2)c(C(=O)N2CC(COc3ccc(F)cn3)CC2C)c1 (racemic) [A-7, 5-fluoro-2-({5-methyl-1-[5-methyl-2-(2H-1,2,3-triazol-2-yl)benzoyl]pyrrolidin-3-yl}methoxy)pyridine] | 6.64 | 8.00 |
